Data from patent US20100234469A1, “New Crystals Of A Benzoylbenzeneacetamide Derivative” (Medichem, S.A., priority 2009, published 2010).
In brackets after ≈: the same amount, converted by molar mass. Like-named read-outs stand apart in the source and are kept apart here. Blank lines part the entries; values can stand above or below the compound they belong to.

Key:
[1] = Chargeability observed when handling crystals with a metallic material; format: physicochemical
Description: Drug substances in solid form can suffer electrostatic charging by contact or friction electrification (tribocharging) caused by interactions among particles or between particles and the surfaces that contain them. These interactions can affect formulation, manufacture, powder flow, and packing behaviour. In addition, it has been reported that electrostatic charges are also responsible for problems in blend uniformity. The net positive or negative tendency of dry powders to become charged electrostatically is called chargeability.
There is no standard instrument for the measurement of the chargeability of dry powders (see AAPS PharmSciTech 2006, 7, Article 103). Triboelectric charge is commonly reported on a charge-to-mass basis since net charge and mass can be easily measured. However, triboelectric and induction charging are more closely related to the surface area of a particle rather to volume or mass. Then, it is well known that the surface area of the particles plays a key role in dry powder chargeability, and that therefore the particles having a higher specific surface area can hold a greater charge.

[2] = Optical microscopy: crystal shape and aspect ratio; format: physicochemical; conditions: for Crystal shape: optical microscopy, 40× magnification; for Aspect ratio: crystal length / width, average of at least 100 crystals
Description: The “aspect ratio” of a crystal is defined as the ratio of its longest dimension to its shortest dimension. As used herein, “aspect ratio” is the quotient of the division of a crystal's length by its width. The aspect ratio of crystals can be obtained by taking micrographs of a batch of crystal (See General Experimental Conditions. Optical Microscopy).
The micrographs were taken at 40× magnification.
The aspect ratio of crystals was obtained from micrographs of a batch of crystal. Micrographs were processed with ImageJ 1.42q software. Length and width of at least 100 representative crystals (i.e., having an area greater than 500 μm^2 for a 40× magnification image) was measured, and the aspect ratio of each crystal was calculated by dividing the crystal length by the crystal width. The average aspect ratio for each batch was determined by dividing the sum of crystal aspect ratios by the number of crystals measured.

[3] = Solubility of nepafenac at reflux temperature in crystallization solvent; format: physicochemical
Experimental: General procedure: Nepafenac was dissolved under magnetical stirring and at reflux in a solvent (See Table 1). The solution was cooled to room temperature under stirring. The solid was filtered and dried. The different conditions and the obtained results are described in Table 1 below.

[4] = Particle size distribution (Malvern Mastersizer S); format: physicochemical; conditions: for D[4,3]: mean diameter by volume; for DMVS (μm): Table 4, surface area mean diameter (D[3,2])
Experimental: The particle size for nepafenac was measured using a Malvern Mastersizer S particle size analyzer with an MS1-Small Volume Sample Dispersion Unit stirred cell. A 300RF mm lens and a beam length of 2.4 mm were used. Samples for analysis were prepared by wetting a weighed amount of nepafenac (approximately 50 mg) with 0.5 mL of a 1% solution of Igepal CA-630 in deionized water, and dispersing in 20 mL of deionized water. After sonication for 1 minute, the suspension was delivered drop-wise to the previously background and corrected measuring cell filled with dispersant (deionized water) until the obscuration reached the desired level. Volume distributions were obtained for three times. After completing the measurements, the sample cell was emptied and cleaned, refilled with suspending medium, and the sampling procedure repeated again. For characterization, the values of D10, D50 and D90 (by volume), D[4,3] (mean diameter by volume) and D[3,2] (mean diameter by surface area to volume, or Sauter diameter) were specifically listed, each one being the mean of the six values available for each characterization parameter.
The notation Dx means that X % of the particles have a diameter less than a specified diameter D. Thus a D90 [or D(v, 0.9)] of 100 μm means that 90% of the particles have a diameter less than 100 μm.

[5] = BET specific surface area; format: physicochemical; conditions: for Specific Surface Area (BET): N2 adsorption at 77 K; for Sw (m^2/g): Table 4, powder specific surface area
Experimental: The BET (Brunauer, Emmett and Teller) specific surface area for nepafenac was measured using a Micromeritics™ GEMINI V equipment (GEMINI CONFIRM V2.00 Software™). The sample for analysis was degassed at 30° C. for 10 minutes and at 140° C. for one hour. The determination of the adsorption of N2 at 77 K was measured for relative pressures in the range of 0.02 to 0.2 for a weighed amount of nepafenac (i.e., approximately 0.5 g).

[6] = Solubility statements (water, n-heptane); format: physicochemical; conditions: n-heptane at the working temperature (25° C.)
[7] = Density by glass pycnometer in n-heptane; format: physicochemical; conditions: for ρ: Table 4, particle density
Experimental: Density of nepafenac samples was determined at 25° C. using a 50 mL glass pycnometer. […] The density of the nepafenac sample (ρs) can be determined from the known density of n-heptane (ρH: 0.685 g/cm^3), the weight of the pycnometer filled only with n-heptane (WH^0, the weight of the filled pycnometer containing both nepafenac and n-heptane (WS+H), and the weight of nepafenac (WS):
Density of nepafenac samples was determined for three times, being the listed result the mean of the three values available for each sample.

[8] = stated as known; cited from earlier work
[9] = Sphericity factor calculation; format: physicochemical; conditions: calculated from Sw, ρ and DMVS
Description: One of the most common ways of expressing the degree of irregularity of the particles is by means of the sphericity factor (ψw), which is generally defined as the ratio between the surface area of a sphere having the same volume as the particle and the surface area of the particle:
Because sphericity factors are not calculated for each particle but for an assembly of particles, they have to be based on an average size. Thus, the sphericity factor will then be given by the following equation: […]
where Sw is the powder specific surface area, ρ is the particle density and DMVS is the surface area mean diameter, also referred to as the mean volume-surface, the Sauter diameter or D[3,2]. The Sauter diameter is defined as the diameter of a sphere that has the same volume/surface area ratio as the particle of interest.
A sphericity factor of 1.0 describes a perfect sphere with the greatest ease of flow (Encapsulated and powdered foods, CRC Press 2005).

[10] = Flowability by Hausner ratio (tapped / bulk density); format: physicochemical; conditions: micronized crystals
Experimental: Flowability affects the ease with which the material is handled during processing into a pharmaceutical product. Namely, when flowability is very poor, problems occur with handling and processing during formulating. The flowability of nepafenac can be measured using the Hausner ratio, which is a value calculated by dividing the tapped bulk density of nepafenac by the freely settled bulk density of nepafenac. The freely settled bulk density is calculated by pouring a known weight of material into a measuring cylinder and recording the volume. The tapped density is calculated by tapping the cylinder against a surface for a specified number of times and recording again the new volume. See Henry H. Hausner, “Friction Conditions in a Mass of Metal Powders”, Int. J. Powder Metall. Vol. 3, 1967, pp 7-13.
A low Hausner ratio indicates a high flowability. […]
Measurement of Hausner ratio is well-known in the art and is described, for example, by Mersmann; Crystallization Technology Handbook (A. Mersmann, ed., 2nd Ed., Marcel Dekker). In the present invention, the bulk and tapped densities for each sample of nepafenac were determined using a TP-TD1 tapped densitometer from Pharma Test. The Hausner ratio of the nepafenac sample was calculated by dividing the tapped bulk density by the bulk density.

[11] = Table 3, micronized samples, unit inferred

SMILES: NC(=O)Cc1cccc(C(=O)c2ccccc2)c1N [Example 6, 2-amino-3-benzoylbenzeneacetamide]
- D10 ([4]; by volume): 30.5 μm
- D50 ([4]; by volume): 144.9 μm
- D90 ([4]; by volume): 401.8 μm
- D[4,3] [4]: 185.0 μm
- Crystal shape [2]: plate-like crystals
- Specific Surface Area (BET) [5]: 0.7046±0.0272 m^2/g

SMILES: NC(=O)Cc1cccc(C(=O)c2ccccc2)c1N [Comparative Example 3, 2-amino-3-benzoylbenzeneacetamide, reference compound]
- D10 ([4]; by volume): 23.6 μm
- D50 ([4]; by volume): 85.8 μm
- D90 ([4]; by volume): 491.1 μm
- D[4,3] ([4]; unit not given, in µm (unit assumed)): 178.4
- Crystal shape [2]: Needle-like crystals
- Specific Surface Area (BET) [5]: 0.8256±0.0270 m^2/g

SMILES: NC(=O)Cc1cccc(C(=O)c2ccccc2)c1N [Example 4, 2-amino-3-benzoylbenzeneacetamide]
- Crystal shape [2]: Plate
- solubility ([3]; 2-propanol:water 60:40, organic solvent or mixture, thermodynamic from solid, in 2-propanol:water 60:40 at reflux, read-out: Solubility): 32.6 mg/mL (≈ 128 mM)

SMILES: NC(=O)Cc1cccc(C(=O)c2ccccc2)c1N [Batch 1, 2-amino-3-benzoylbenzeneacetamide]
- D10 [4, 11]: 6.1 µm
- D50 [4, 11]: 21.4 µm
- D90 [4, 11]: 64.3 µm

SMILES: NC(=O)Cc1cccc(C(=O)c2ccccc2)c1N [nepafenac, 2-amino-3-benzoylbenzeneacetamide, reference compound]
- Solubility in n-heptane [6]: practically insoluble
- solubility ([3]; 2-propanol, organic solvent or mixture, thermodynamic from solid, in 2-propanol at reflux temperature, read-out: Solubility): 21 mg/mL (≈ 82.6 mM)
- solubility ([3]; mixtures of 2-propanol with up to 40% of water, organic solvent or mixture, thermodynamic from solid, in mixtures of 2-propanol with up to 40% of water at reflux temperature, read-out: Solubility): 30 to 80 mg/mL (≈ 118 to 315 mM)
- solubility ([3]; water, 100 °C, water, thermodynamic from solid, in water at reflux temperature, read-out: Solubility): 0.7 mg/mL (≈ 2.75 mM)
- True density ([7]; experimental): 1.33 g/mL
- Solubility in water [8]: practically insoluble

SMILES: NC(=O)Cc1cccc(C(=O)c2ccccc2)c1N [Example 10, 2-amino-3-benzoylbenzeneacetamide]
- DMVS (μm) [4]: 2.7 μm
- D10 ([4]; by volume): 2.2 μm
- D50 ([4]; by volume): 12.1 μm
- D90 ([4]; by volume): 27.5 μm
- D[3,2] ([4]; mean diameter by surface area to volume (Sauter diameter)): 2.7 μm
- Ψw (sphericity factor) [9]: 0.82
- ρ [7]: 1.33 g/mL
- Sw (m^2/g) [5]: 2.0341 ± 0.0074 m^2/g

SMILES: NC(=O)Cc1cccc(C(=O)c2ccccc2)c1N [Comparative Example 2, 2-amino-3-benzoylbenzeneacetamide, reference compound]
- Aspect ratio [2]: 5.67
- Crystal shape [2]: Needle-like crystals

SMILES: NC(=O)Cc1cccc(C(=O)c2ccccc2)c1N [Batch 2, 2-amino-3-benzoylbenzeneacetamide]
- D10 [4, 11]: 4.8 µm
- D50 [4, 11]: 19.8 µm
- D90 [4, 11]: 66.5 µm

SMILES: NC(=O)Cc1cccc(C(=O)c2ccccc2)c1N [Example 1, 2-amino-3-benzoylbenzeneacetamide]
- Aspect ratio [2]: 3.04
- Crystal shape [2]: Plate
- solubility ([3]; 2-propanol:water 90:10, organic solvent or mixture, thermodynamic from solid, in 2-propanol:water 90:10 at reflux, read-out: Solubility): 55.2 mg/mL (≈ 217 mM)

SMILES: NC(=O)Cc1cccc(C(=O)c2ccccc2)c1N [Example 3, 2-amino-3-benzoylbenzeneacetamide]
- Crystal shape [2]: Plate
- solubility ([3]; 2-propanol:water 70:30, organic solvent or mixture, thermodynamic from solid, in 2-propanol:water 70:30 at reflux, read-out: Solubility): 79.6 mg/mL (≈ 313 mM)

Now from value to compound:

- Chargeability [1]: high chargeability
- Crystal shape [2]: needle-like shape
- solubility ([3]; in 2-propanol at reflux temperature): 21.2 mg/mL (≈ 83.4 mM)
SMILES: NC(=O)Cc1cccc(C(=O)c2ccccc2)c1N [Comparative Example 1, 2-amino-3-benzoylbenzeneacetamide, reference compound]

- Crystal shape [2]: Plate
- solubility ([3]; 2-propanol:water 80:20, organic solvent or mixture, thermodynamic from solid, in 2-propanol:water 80:20 at reflux, read-out: Solubility): 78.6 mg/mL (≈ 309 mM)
SMILES: NC(=O)Cc1cccc(C(=O)c2ccccc2)c1N [Example 2, 2-amino-3-benzoylbenzeneacetamide]

- D10 ([4]; by volume): 1.3 μm
- D50 ([4]; by volume): 6.1 μm
- D90 ([4]; by volume): 17.1 μm
SMILES: NC(=O)Cc1cccc(C(=O)c2ccccc2)c1N [Example 7, 2-amino-3-benzoylbenzeneacetamide, reference compound]

- DMVS (μm) [4]: 2.5 μm
- D10 ([4]; by volume): 1.2 μm
- D50 ([4]; by volume): 5.8 μm
- D90 ([4]; by volume): 18.9 μm
- Hausner ratio [10]: 1.43
- Ψw (sphericity factor) [9]: 1.0
- ρ [7]: 1.33 g/mL
- Sw (m^2/g) [5]: 1.7686 ± 0.0242 m^2/g
SMILES: NC(=O)Cc1cccc(C(=O)c2ccccc2)c1N [Example 8, 2-amino-3-benzoylbenzeneacetamide]

- D10 [4, 11]: 4.4 µm
- D50 [4, 11]: 14.9 µm
- D90 [4, 11]: 45.3 µm
SMILES: NC(=O)Cc1cccc(C(=O)c2ccccc2)c1N [Batch 3, 2-amino-3-benzoylbenzeneacetamide]

- Chargeability [1]: Reduced chargeability
- Crystal shape [2]: plate-like shape
SMILES: NC(=O)Cc1cccc(C(=O)c2ccccc2)c1N [Example 5, 2-amino-3-benzoylbenzeneacetamide]
